Experimental data: US11427567B2, “Imidazolyl pyrimidinylamine compounds as CDK2 inhibitors” (Incyte Corporation, priority 2019, dated 2022)

Biological target: CDK2/Cyclin E1 (Homo sapiens (Human), UniProt P24941)
Experiment: CDK2/Cyclin E1 HTRF enzyme activity assay (Example A)
Type: biochemical
Settings: 1 mM ATP
Description: Assays were conducted in white 384-well polystyrene plates in a final reaction volume of 8 μL. […] HTRF signals were read after 1 hour at room temperature on a PHERAstar FS plate reader (BMG Labtech). Data was analyzed with IDBS XLFit and GraphPad Prism 5.0 software using a three or four parameter dose response curve to determine IC50 for each compound.

| SMILES | IC50 |
| --- | --- |
| C[C@@]1(O)CCN(Cc2cc(F)c(-n3cnc(-c4nc(N[C@@H]5CCN(S(C)(=O)=O)C[C@H]5F)ncc4C(F)(F)F)c3)c(Cl)c2)C1 [Example 402, (R)-1-(3-Chloro-5-fluoro-4-(4-(2-(((3R,4R)-3-fluoro-1-(methylsulfonyl)piperidin-4-yl)amino)-5-(trifluoromethyl)pyrimidin-4-yl)-1H-imidazol-1-yl)benzyl)-3-methylpyrrolidin-3-ol] | ≤ 50 nM |
| Cc1nc(-c2nc(NC3CCN(S(C)(=O)=O)CC3)ncc2C#N)cn1-c1ccc(C#N)cc1F [Example 290, 4-(1-(4-Cyano-2-fluorophenyl)-2-methyl-1H-imidazol-4-yl)-2-((1-(methylsulfonyl)piperidin-4-yl)amino)pyrimidine-5-carbonitrile] | ≤ 50 nM |
| CS(=O)(=O)N1CCC(Nc2ncc(C(F)(F)F)c(-c3cn(-c4ccc5cccnc5c4Cl)cn3)n2)CC1 [Example 165, 4-(1-(8-Chloroquinolin-7-yl)-1H-imidazol-4-yl)-N-(1-(methyl-sulfonyl)piperidin-4-yl)-5-(trifluoromethyl)-pyrimidin-2-amine] | ≤ 50 nM |
| COc1ccc(-n2cnc(-c3nc(NC4CCN(S(C)(=O)=O)CC4)ncc3C(F)(F)F)c2)c(C(F)(F)F)n1 [Example 70, 4-(1-(6-Methoxy-2-(trifluoromethyl)pyridin-3-yl)-1H-imidazol-4-yl)-N-(1-(methylsulfonyl)piperidin-4-yl)-5-(trifluoromethyl)pyrimidin-2-amine] | ≤ 50 nM |
| CS(=O)(=O)N1CCC(Nc2ncc(C(F)(F)F)c(-c3cn(-c4ccccc4Cl)cn3)n2)CC1 [Example 55, 4-(1-(2-Chlorophenyl)-1H-imidazol-4-yl)-N-(1-(methylsulfonyl)piperidin-4-yl)-5-(trifluoromethyl)pyrimidin-2-amine] | ≤ 50 nM |
| Cc1nc(-c2nc(NC3CCN(S(C)(=O)=O)CC3)ncc2C(F)(F)F)cn1-c1ccccc1F [Example 102, 4-(1-(2-Fluorophenyl)-2-methyl-1H-imidazol-4-yl)-N-(1-(methylsulfonyl)piperidin-4-yl)-5-(trifluoromethyl)pyrimidin-2-amine] | ≤ 50 nM |
| Cc1nc(-c2nc(NC3CCN(S(C)(=O)=O)CC3)ncc2C#N)cn1-c1ccc(CN(C)C)cc1Cl [Example 288, 4-(1-(2-Chloro-4-((dimethylamino)methyl)phenyl)-2-methyl-1H-imidazol-4-yl)-2-((1-(methylsulfonyl)piperidin-4-yl)amino)pyrimidine-5-carbonitrile] | ≤ 50 nM |
| Cc1nc(-c2nc(NC3CCN(S(C)(=O)=O)CC3)ncc2C(F)(F)F)cn1-c1ccc(N2CC[C@H](N(C)C)C2)cc1F [Example 110, (S)-4-(1-(4-(3-(Dimethylamino)-pyrrolidin-1-yl)-2-fluorophenyl)-2-methyl-1H-imidazol-4-yl)-N-(1-(methyl-sulfonyl)piperidin-4-yl)-5-(trifluoro-methyl)pyrimidin-2-amine] | ≤ 50 nM |
| CNCc1ccc(-n2cnc(-c3nc(N[C@H]4CCN(S(=O)(=O)C5CC5)C[C@H]4C)ncc3C(F)(F)F)c2)c(Cl)c1 [Example 223, 4-(1-(2-Chloro-4-((methylamino)-methyl)phenyl)-1H-imidazol-4-yl)-N-((3R,4S)-1-(cyclo-propylsulfonyl)-3-methylpiperidin-4-yl)-5-(trifluoro-methyl)pyrimidin-2-amine] | ≤ 50 nM |
| Cc1nc(C#N)ccc1-n1cnc(-c2nc(N[C@H]3CCN(S(C)(=O)=O)C[C@H]3F)ncc2C(F)(F)F)c1 [Example 49, 5-(4-(2-(((3R,4S)-3-Fluoro-1-(methylsulfonyl)piperidin-4-yl)amino)-5-(trifluoromethyl)pyrimidin-4-yl)-1H-imidazol-1-yl)-6-methylpicolinonitrile] | ≤ 50 nM |
| CN1CCN(Cc2cc(F)c(-n3cnc(-c4nc(NC5CCN(S(C)(=O)=O)CC5)ncc4C(F)(F)F)c3)c(F)c2)CC1=O [Example 409, 4-(3,5-Difluoro-4-(4-(2-((1-(methylsulfonyl)piperidin-4-yl)amino)-5-(trifluoromethyl)pyrimidin-4-yl)-1H-imidazol-1-yl)benzyl)-1-methylpiperazin-2-one] | ≤ 50 nM |
| COc1nccc(-n2cnc(-c3nc(NC4CCN(S(C)(=O)=O)CC4)ncc3C(F)(F)F)c2)c1C [Example 312, 4-(1-(2-Methoxy-3-methylpyridin-4-yl)-1H-imidazol-4-yl)-N-(1-(methylsulfonyl)piperidin-4-yl)-5-(trifluoromethyl)pyrimidin-2-amine] | ≤ 50 nM |
| Cc1nc(-c2nc(NC3CCN(S(C)(=O)=O)CC3)ncc2C(F)(F)F)cn1-c1ccc(C2CN(C[C@@H](C)O)C2)cc1F [Example 421, (R)-1-(3-(3-Fluoro-4-(2-methyl-4-(2-((1-(methylsulfonyl)piperidin-4-yl)amino)-5-(trifluoromethyl)pyrimidin-4-yl)-1H-imidazol-1-yl)phenyl)azetidin-1-yl)propan-2-ol] | ≤ 50 nM |
| CS(=O)(=O)N1CC[C@H](Nc2ncc(C(F)(F)F)c(-c3cn(-c4cccc(C#N)c4Cl)cn3)n2)[C@H](F)C1 [Example 45, 2-Chloro-3-(4-(2-(((3R,4S)-3-fluoro-1-(methylsulfonyl)piperidin-4-yl)amino)-5-(trifluoromethyl)pyrimidin-4-yl)-1H-imidazol-1-yl)benzonitrile] | ≤ 50 nM |
| CS(=O)(=O)N1CCC(Nc2ncc(C(F)(F)F)c(-c3cn(-c4ccc(CNCC(F)F)cc4C(F)(F)F)cn3)n2)CC1 [Example 448, 4-(1-(4-(((2,2-Difluoroethyl)amino)methyl)-2-(trifluoromethyl)phenyl)-1H-imidazol-4-yl)-N-(1-(methylsulfonyl)piperidin-4-yl)-5-(trifluoromethyl)pyrimidin-2-amine] | ≤ 50 nM |
| Cn1ccc(S(=O)(=O)N2CC[C@@H](Nc3ncc(C(F)(F)F)c(-c4cn(CC(C)(C)O)cn4)n3)[C@H](F)C2)n1 [Example 335, 1-(4-(2-(((3R,4R)-3-Fluoro-1-((1-methyl-1H-pyrazol-3-yl)sulfonyl)piperidin-4-yl)amino)-5-(trifluoromethyl)pyrimidin-4-yl)-1H-imidazol-1-yl)-2-methylpropan-2-ol] | ≤ 50 nM |
| Cc1nc(-c2nc(NC3CCN(S(C)(=O)=O)CC3)ncc2C(F)(F)F)cn1-c1ccc(N2CCN[C@H](C)C2)cc1F [Example 115, (R)-4-(1-(2-Fluoro-4-(3-methyl-piperazin-1-yl)-phenyl)-2-methyl-1H-imidazol-4-yl)-N-(1-(methyl-sulfonyl)piperidin-4-yl)-5-(trifluoro-methyl)pyrimidin-2-amine] | ≤ 50 nM |
| Cc1c(-c2nc(NC3CCN(S(C)(=O)=O)CC3)ncc2C(F)(F)F)ncn1C [Example 15, 4-(1,5-Dimethyl-1H-imidazol-4-yl)-N-(1-(methylsulfonyl)piperidin-4-yl)-5-(trifluoromethyl)pyrimidin-2-amine] | 50 to 200 nM |

More lines, now with the values ahead:

| IC50 | SMILES |
| --- | --- |
| ≤ 50 nM | O=S(=O)(C1CC1)N1CCC(Nc2ncc(C(F)(F)F)c(-c3cn(-c4ccc(CN5CCC5)cc4Cl)cn3)n2)CC1 [Example 228, 4-(1-(4-(Azetidin-1-ylmethyl)-2-chlorophenyl)-1H-imidazol-4-yl)-N-(1-(cyclopropylsulfonyl)piperidin-4-yl)-5-(trifluoromethyl)pyrimidin-2-amine] |
| ≤ 50 nM | Cn1cnc(S(=O)(=O)N2CCC(Nc3ncc(C(F)(F)F)c(-c4cn(-c5ccc(C#N)cc5Cl)cn4)n3)CC2)c1 [Example 4, 3-Chloro-4-(4-(2-((1-((1-methyl-1H-imidazol-4-yl)sulfonyl)piperidin-4-yl)amino)-5-(trifluoromethyl)pyrimidin-4-yl)-1H-imidazol-1-yl)benzonitrile] |
| ≤ 50 nM | CC(c1cccc(-n2cnc(-c3nc(NC4CCN(S(C)(=O)=O)CC4)ncc3C(F)(F)F)c2)c1Cl)N1CCC1 (centres unmarked) [Example 469, 4-(1-(3-(1-(Azetidin-1-yl)ethyl)-2-chlorophenyl)-1H-imidazol-4-yl)-N-(1-(methylsulfonyl)piperidin-4-yl)-5-(trifluoromethyl)pyrimidin-2-amine] |
| ≤ 50 nM | COc1ccc(-n2cnc(-c3nc(N[C@H]4CCN(S(C)(=O)=O)C[C@H]4F)ncc3C(F)(F)F)c2)c(C#N)n1 [Example 52, 3-(4-(2-(((3R,4S)-3-Fluoro-1-(methylsulfonyl)piperidin-4-yl)amino)-5-(trifluoromethyl)pyrimidin-4-yl)-1H-imidazol-1-yl)-6-methoxypicolinonitrile] |
| ≤ 50 nM | Cc1ccc(-n2cnc(-c3nc(N[C@H]4CCN(S(C)(=O)=O)C[C@H]4F)ncc3C(F)(F)F)c2)c(C(F)(F)F)n1 [Example 46, N-((3R,4S)-3-Fluoro-1-(methylsulfonyl)piperidin-4-yl)-4-(1-(6-methyl-2-(trifluoromethyl)pyridin-3-yl)-1H-imidazol-4-yl)-5-(trifluoromethyl)pyrimidin-2-amine] |
| ≤ 50 nM | Cc1nc(-c2nc(NC3CCN(S(C)(=O)=O)CC3)ncc2C(F)(F)F)cn1-c1ccc(CN(C)C)cc1F [Example 279, 4-(1-(4-((Dimethylamino)methyl)-2-fluorophenyl)-2-methyl-1H-imidazol-4-yl)-N-(1-(methylsulfonyl)piperidin-4-yl)-5-(trifluoromethyl)pyrimidin-2-amine] |
| ≤ 50 nM | CN1CCN(c2ccc(-n3cnc(-c4nc(NC5CCN(S(C)(=O)=O)CC5)ncc4C(F)(F)F)c3)c(Cl)c2)CC1=O [Example 142, 4-(3-Chloro-4-(4-(2-((1-(methyl-sulfonyl)piperidin-4-yl)amino)-5-(trifluoromethyl)-pyrimidin-4-yl)-1H-imidazol-1-yl)phenyl)-1-methylpiperazin-2-one] |
| ≤ 50 nM | CS(=O)(=O)N1CCC(Nc2ncc(C(F)(F)F)c(-c3cn(-c4cccc(CNC5CCOC5)c4Cl)cn3)n2)CC1 (centres unmarked) [Example 367, 4-(1-(2-Chloro-3-(((tetrahydrofuran-3-yl)amino)methyl)phenyl)-1H-imidazol-4-yl)-N-(1-(methylsulfonyl)piperidin-4-yl)-5-(trifluoromethyl)pyrimi-din-2-amine] |
